Data reported in US10189838B2, “Aza-oxo-indoles for the treatment and prophylaxis of respiratory syncytial virus infection” (Hoffmann-La Roche Inc., priority 2013, dated 2019).

Tested on: RSV Long strain
Experiment: Viral cytopathic effect (CPE) assay, RSV Long strain
Type: cell-based, Respiratory Syncytial Virus
Conditions: human respiratory syncytial virus, 144 h, cell viability after 6 days (Cell Counting kit-8)
Protocol: EC50: the concentration of a compound where 50% of its maximal protection effect against viral induced CPE is observed
LongStrain: an A subtype RSV strain obtained from ATCC with catalog number VR-26
To measure anti-RSV activity of compounds, 96-well plates are seeded with 6×10^3 cells per well in Dulbecco's modified Eagle's medium (DMEM) containing 10% fetal bovine serum (FBS). Cells are infected the next day with sufficient RSV Long strain (ATCC) to produce an approximately 80-90% cytopathic effect after 6 days, in the presence of serial half-log diluted compound in a total volume of […] per well. The viability of cells is assessed after 6 days using Cell Counting kit-8 (Dojindo Molecular Technologies). The absorbance at 450 nm and referenced at 630 nm is measured to determine 50% effective concentration (EC50)

Structure (SMILES)	EC50 [nM]
O=C1N(Cc2cc3cc(Cl)cnc3n2CCC2CS(=O)(=O)C2)c2cnccc2C12CC2 [Example 12, 1′-({5-Chloro-1-[2-(1,1-dioxidothietan-3-yl)ethyl]-1H-pyrrolo[2,3-b]pyridin-2-yl}methyl)spiro[cyclopropane-1,3′-pyrrolo[2,3-c]pyridin]-2′(1′H)-one]	29
CCOC(=O)CCn1c(CN2C(=O)C3(CC3)c3ccncc32)cc2cc(Cl)cc(F)c21 [Example 13, Ethyl 3-{5-chloro-7-fluoro-2-[(2′-oxospiro[cyclopropane-1,3′-pyrrolo[2,3-c]pyridin]-1′(2′H)-yl)methyl]-1H-indol-1-yl}propanoate]	18
CS(=N)(=O)CCCn1c(CN2C(=O)C3(CC3)c3ccncc32)cc2cc(Cl)ccc21 (centres unmarked) [Example 14-1, 1′-({5-Chloro-1-[3-(S-methylsulfonimidoyl)propyl]-1H-indol-2-yl}methyl)spiro[cyclopropane-1,3′-pyrrolo[2,3-c]pyridin]-2′(1′H)-one]	6
CS(=N)(=O)CCn1c(CN2C(=O)C3(CC3)c3ccncc32)cc2cc(Cl)ccc21 (centres unmarked) [Example 14-2, 1′-({5-Chloro-1-[2-(S-methylsulfonimidoyl)ethyl]-1H-indol-2-yl}methyl)spiro[cyclopropane-1,3′-pyrrolo[2,3-c]pyridin]-2′(1′H)-one]	7
CS(=N)(=O)CCCCn1c(CN2C(=O)C3(CC3)c3ccncc32)cc2cc(Cl)cnc21 (centres unmarked) [Example 14-3, 1′-({5-Chloro-1-[4-(S-methylsulfonimidoyl)butyl]-1H-pyrrolo[2,3-b]pyridin-2-yl}methyl)spiro[cyclopropane-1,3′-pyrrolo[2,3-c]pyridin]-2′(1′H)-one]	74
CS(=N)(=O)CCn1c(CN2C(=O)C3(CC3)c3ccncc32)cc2cc(Cl)cnc21 (centres unmarked) [Example 14-4, 1′-({5-Chloro-1-[2-(S-methylsulfonimidoyl)ethyl]-1H-pyrrolo[2,3-b]pyridin-2-yl}methyl)spiro[cyclopropane-1,3′-pyrrolo[2,3-c]pyridin]-2′(1′H)-one]	172
CC(=O)N=S(C)(=O)CCn1c(CN2C(=O)C3(CC3)c3ccncc32)cc2cc(Cl)ccc21 (centres unmarked) [Example 15, N-[(2-{5-Chloro-2-[(2′-oxospiro[cyclopropane-1,3′-pyrrolo[2,3-c]pyridin]-1′(2′H)-yl)methyl]-1H-indol-1-yl}ethyl)(methyl)oxido-λ^6-sulfanylidene]acetamide]	25
O=C(O)CCn1c(CN2C(=O)C3(CC3)c3ccncc32)cc2cc(Cl)ccc21 [Example 16-1, 3-{5-Chloro-2-[(2′-oxospiro[cyclopropane-1,3′-pyrrolo[2,3-c]pyridin]-1′(2′H)-yl)methyl]-1H-indol-1-yl}propanoic acid]	390
O=C(O)CCn1c(CN2C(=O)C3(CC3)c3ccncc32)cc2cc(Cl)cc(F)c21 [Example 16-2, 3-{5-Chloro-7-fluoro-2-[(2′-oxospiro[cyclopropane-1,3′-pyrrolo[2,3-c]pyridin]-1′(2′H)-yl)methyl]-1H-indol-1-yl}propanoic acid]	300
COC(=O)CCCn1c(CN2C(=O)C3(CC3)c3ccncc32)cc2cc(Cl)ccc21 [Example 17, Methyl 4-{5-chloro-2-[(2′-oxospiro[cyclopropane-1,3′-pyrrolo[2,3-c]pyridin]-1′(2′H)-yl)methyl]-1H-indol-1-yl}butanoate]	18.6
NC(=O)CCn1c(CN2C(=O)C3(CC3)c3ccncc32)cc2cc(Cl)ccc21 [Example 18-1, 3-{5-Chloro-2-[(2′-oxospiro[cyclopropane-1,3′-pyrrolo[2,3-c]pyridin]-1′(2′H)-yl)methyl]-1H-indol-1-yl}propanamide]	17
NC(=O)CCn1c(CN2C(=O)C3(CC3)c3cccnc32)cc2cc(Cl)ccc21 [Example 18-2, 3-{5-Chloro-2-[(2′-oxospiro[cyclopropane-1,3′-pyrrolo[2,3-b]pyridin]-1′(2′H)-yl)methyl]-1H-indol-1-yl}propanamide]	711
NC(=O)CCCn1c(CN2C(=O)C3(CC3)c3ccncc32)cc2cc(Cl)ccc21 [Example 18-3, 4-{5-Chloro-2-[(2′-oxospiro[cyclopropane-1,3′-pyrrolo[2,3-c]pyridin]-1′(2′H)-yl)methyl]-1H-indol-1-yl}butanamide]	11
O=C(CCn1c(CN2C(=O)C3(CC3)c3ccncc32)cc2cc(Cl)ccc21)NS(=O)(=O)C1CC1 [Example 19-1, 3-{5-Chloro-2-[(2′-oxospiro[cyclopropane-1,3′-pyrrolo[2,3-c]pyridin]-1′(2′H)-yl)methyl]-1H-indol-1-yl}-N-(cyclopropylsulfonyl)propanamide]	1180
CN(C(=O)CCn1c(CN2C(=O)C3(CC3)c3ccncc32)cc2cc(Cl)ccc21)S(=O)(=O)C1CC1 [Example 19-2, 3-{5-Chloro-2-[(2′-oxospiro[cyclopropane-1,3′-pyrrolo[2,3-c]pyridin]-1′(2′H)-yl)methyl]-1H-indol-1-yl}-N-(cyclopropylsulfonyl)-N-methylpropanamide]	59
CN(C(=O)CCn1c(CN2C(=O)C3(CC3)c3ccncc32)cc2cc(Cl)ccc21)S(C)(=O)=O [Example 19-3, 3-{5-Chloro-2-[(2′-oxospiro[cyclopropane-1,3′-pyrrolo[2,3-c]pyridin]-1′(2′H)-yl)methyl]-1H-indol-1-yl}-N-methyl-N-(methylsulfonyl)propanamide]	47
O=C1CNC(=O)N1CCn1c(CN2C(=O)C3(CC3)c3ccncc32)cc2cc(Cl)ccc21 [Example 20, 3-(2-{5-Chloro-2-[(2′-oxospiro[cyclopropane-1,3′-pyrrolo[2,3-c]pyridin]-1′(2′H)-yl)methyl]-1H-indol-1-yl}ethyl)imidazolidine-2,4-dione]	3480
O=C1N(Cc2cc3cc(Cl)ccc3n2CCCN2CC[C@@H](O)C2)c2cnccc2C12CC2 [Example 21, 1′-[(5-Chloro-1-{3-[(3R)-3-hydroxypyrrolidin-1-yl]propyl}-1H-indol-2-yl)methyl]spiro[cyclopropane-1,3′-pyrrolo[2,3-c]pyridin]-2′(1′H)-one]	544
CCS(=O)(=O)CCCn1c(CN2C(=O)C3(CC3)c3ccncc32)cc2cc(Cl)ccc21 [Example 22-1, 1′-({5-Chloro-1-[3-(ethylsulfonyl)propyl]-1H-indol-2-yl}methyl)spiro[cyclopropane-1,3′-pyrrolo[2,3-c]pyridin]-2′(1′H)-one]	3
CS(=O)(=O)CCCn1c(CN2C(=O)C3(CC3)c3cccnc32)cc2cc(Cl)ccc21 [Example 22-2, 1′-({5-Chloro-1-[3-(methylsulfonyl)propyl]-1H-indol-2-yl}methyl)spiro[cyclopropane-1,3′-pyrrolo[2,3-b]pyridin]-2′(1′H)-one]	88
CS(=O)(=O)CCCn1c(CN2C(=O)C3(CC3)c3ccncc32)cc2cc(Cl)ccc21 [Example 22-3, 1′-({5-Chloro-1-[3-(methylsulfonyl)propyl]-1H-indol-2-yl}methyl)spiro[cyclopropane-1,3′-pyrrolo[2,3-c]pyridin]-2′(1′H)-one]	3
CCS(=O)(=O)CCCn1c(CN2C(=O)C3(CC3)c3ccncc32)cc2cc(Cl)cnc21 [Example 23, 1′-({5-Chloro-1-[3-(ethylsulfonyl)propyl]-1H-pyrrolo[2,3-b]pyridin-2-yl}methyl)spiro[cyclopropane-1,3′-pyrrolo[2,3-c]pyridin]-2′(1′H)-one]	63
O=C1N(Cc2cc3cc(Cl)ccc3n2CCN2CCNCC2)c2cnccc2C12CC2 [Example 24-1, 1′-({5-Chloro-1-[2-(piperazin-1-yl)ethyl]-1H-indol-2-yl}methyl)spiro[cyclopropane-1,3′-pyrrolo[2,3-c]pyridin]-2′(1′H)-one]	68
O=C1N(Cc2cc3cc(Cl)ccc3n2CCCS(=O)(=O)N2CCNCC2)c2cnccc2C12CC2 [Example 24-2, 1′-({5-Chloro-1-[3-(piperazin-1-ylsulfonyl)propyl]-1H-indol-2-yl}methyl)spiro[cyclopropane-1,3′-pyrrolo[2,3-c]pyridin]-2′(1′H)-one]	15
O=C1N(Cc2cc3cc(Cl)ccc3n2CCCS(=O)(=O)N2C[C@H]3C[C@@H]2CN3)c2cnccc2C12CC2 [Example 24-3, 1′-[(5-Chloro-1-{3-[(1R,4R)-2,5-diazabicyclo[2.2.1]hept-2-ylsulfonyl]propyl}-1H-indol-2-yl)methyl]spiro[cyclopropane-1,3′-pyrrolo[2,3-c]pyridin]-2′(1′H)-one]	19
O=C1CNCCN1CCCn1c(CN2C(=O)C3(CC3)c3ccncc32)cc2cc(Cl)ccc21 [Example 24-4, 1′-({5-Chloro-1-[3-(2-oxopiperazin-1-yl)propyl]-1H-indol-2-yl}methyl)spiro[cyclopropane-1,3′-pyrrolo[2,3-c]pyridin]-2′(1′H)-one]	30
NCCn1c(CN2C(=O)C3(CC3)c3ccncc32)cc2cc(Cl)ccc21 [Example 24-5, 1′-{[1-(2-Aminoethyl)-5-chloro-1H-indol-2-yl]methyl}spiro[cyclopropane-1,3′-pyrrolo[2,3-c]pyridin]-2′(1′H)-one]	64
CNS(=O)(=O)CCCn1c(CN2C(=O)C3(CC3)c3ccncc32)cc2cc(Cl)cnc21 [Example 25-1, 3-{5-Chloro-2-[(2′-oxospiro[cyclopropane-1,3′-pyrrolo[2,3-c]pyridin]-1′(2′H)-yl)methyl]-1H-pyrrolo[2,3-b]pyridin-1-yl}-N-methylpropane-1-sulfonamide]	57
CNS(=O)(=O)CCCn1c(CN2C(=O)C3(CC3)c3ccncc32)cc2cc(Cl)ccc21 [Example 25-2, 3-{5-Chloro-2-[(2′-oxospiro[cyclopropane-1,3′-pyrrolo[2,3-c]pyridin]-1′(2′H)-yl)methyl]-1H-indol-1-yl}-N-methylpropane-1-sulfonamide]	11
